# System: HCV replicon, genotype-1a variant with glutamine 30 changed to glutamate in the NS5A protein
# Assay: microbe, parasite or virus in culture
# Type: cell-based, HCV genotype 1a
# Settings: HCV replicon genotype 1a Q30E (Q→E) variant; test compound titrated with an NS5A-targeting compound (BMS-790052 fixed at 200 nM); ranking of synergist activity
# Summary of the method: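 Synergy was assessed by combining several fixed amounts of an NS5A-targeting compound with a titration of the second compound of interest.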
row,Compound,Fold-Synergistic 1a (Q30E)
1,CC(C)[C@H](NC(=O)C1CCC(F)(F)CC1)c1nc(-c2ccc3c(c2)Cc2cc(-c4c[nH]c([C@@H](NC(=O)C5CCC(F)(F)CC5)C(C)C)n4)ccc2-3)c[nH]1 [Compound N-70],>100 fold
2,CC(C)(C)[C@H](NC(=O)C12CCC(O)(CC1)CC2)c1nc(-c2ccc(-c3ccc(-c4c[nH]c([C@@H](NC(=O)C56CCC(O)(CC5)CC6)C(C)(C)C)n4)cc3)cc2)c[nH]1 [Compound W-128],>100 fold
3,CC(C)[C@H](NC(=O)[C@@]1(C)CC(F)(F)CCO1)c1nc(-c2ccc(-c3ccc(-c4c[nH]c([C@@H](NC(=O)[C@@]5(C)CC(F)(F)CCO5)C(C)C)n4)cc3)cc2)c[nH]1 [Compound Y-79],>100 fold
4,CC(=O)OC1C2CCCC1(C(=O)N[C@H](c1nc(-c3ccc(-c4ccc(-c5c[nH]c([C@@H](NC(=O)C67CCCC(CCC6)C7OC(C)=O)C(C)(C)C)n5)cc4)cc3)c[nH]1)C(C)(C)C)CCC2 (stereo partly drawn) [Compound S-274],>100 fold
5,CCC(C)C(=O)N1CCC[C@H]1c1ncc(-c2ccc(-c3ccc(-c4cnc([C@@H]5CCCN5C(=O)C(C)CC)[nH]4)cc3)cc2)[nH]1 (stereo partly drawn) [Compound S-169],<10 fold
6,CC(C)(C)[C@H](NC(=O)CC1CCOC2(CC2)C1)c1nc(-c2ccc(-c3ccc(-c4c[nH]c([C@@H](NC(=O)CC5CCOC6(CC6)C5)C(C)(C)C)n4)cc3)cc2)c[nH]1 (stereo partly drawn) [Compound L-75],>100 fold
7,Cc1onc(-c2ccccc2)c1C(=O)N1CCC[C@H]1c1ncc(-c2ccc(-c3ccc(-c4cnc([C@@H]5CCCN5C(=O)c5c(-c6ccccc6)noc5C)[nH]4)cc3)cc2)[nH]1 [Compound S-118],<10 fold
8,CC1(C)CCCC(C)(C(=O)N[C@H](c2nc(-c3ccc(-c4ccc(-c5c[nH]c([C@@H](NC(=O)C6(C)CCCC(C)(C)O6)C(C)(C)C)n5)cc4)cc3)c[nH]2)C(C)(C)C)O1 (stereo partly drawn) [Compound W-165],>100 fold
9,O=C(c1nccc2ccccc12)N1CCC[C@H]1c1ncc(-c2ccc(-c3ccc(-c4cnc([C@@H]5CCCN5C(=O)c5nccc6ccccc56)[nH]4)cc3)cc2)[nH]1 [Compound S-202],>100 fold
10,O=C(c1ccsc1)N1CCC[C@H]1c1ncc(-c2ccc(-c3ccc(-c4cnc([C@@H]5CCCN5C(=O)c5ccsc5)[nH]4)cc3)cc2)[nH]1 [Compound S-183],<10 fold
11,COC(=O)C1([C@H](CC(C)C)C(=O)N[C@H](c2nc(-c3ccc(-c4ccc(-c5c[nH]c([C@@H](NC(=O)[C@@H](CC(C)C)C6(C(=O)OC)CC=CC6)C(C)(C)C)n5)cc4)cc3)c[nH]2)C(C)(C)C)CC=CC1 [Compound S-294],>100 fold
12,CC(C)[C@H](NC(=O)C(=O)N1CCC(C(F)(F)F)CC1)c1nc(-c2ccc(-c3ccc(-c4c[nH]c([C@@H](NC(=O)C(=O)N5CCC(C(F)(F)F)CC5)C(C)C)n4)cc3)cc2)c[nH]1 [Compound W-53],>100 fold
13,CC(C)(C)OC(=O)N1CCOC[C@H]1C(=O)N[C@H](c1nc(-c2ccc(-c3ccc(-c4c[nH]c([C@@H](NC(=O)[C@@H]5COCCN5C(=O)OC(C)(C)C)C(C)(C)C)n4)cc3)cc2)c[nH]1)C(C)(C)C [Compound L-61],>100 fold
14,CC(C)(C)[C@H](NC(=O)C12CC3CC(CC(C3)C1)C2)c1nc(-c2ccc(-c3ccc(-c4c[nH]c([C@@H](NC(=O)C56CC7CC(CC(C7)C5)C6)C(C)(C)C)n4)cc3)cc2)c[nH]1 [Compound N-62],>100 fold
15,C[C@@H]1C[C@@H](C(=O)N[C@H](c2nc(-c3ccc(-c4ccc(-c5c[nH]c([C@@H](NC(=O)[C@@H]6C[C@@H](C)CN6C(=O)OC(C)(C)C)C(C)(C)C)n5)cc4)cc3)c[nH]2)C(C)(C)C)N(C(=O)OC(C)(C)C)C1 [Compound W-120],>100 fold
16,CC(C)C(c1ncc(-c2ccc(-c3ccc(-c4cnc(C(C(C)C)N5CCCCC5=O)[nH]4)cc3)cc2)[nH]1)N1CCCCC1=O (stereo not drawn) [Compound P-52],>10 fold
17,COC(=O)N[C@H](C(=O)N[C@@H](CC(C)C)c1nc(-c2ccc(-c3ccc(-c4c[nH]c([C@H](CC(C)C)NC(=O)[C@@H](NC(=O)OC)C(C)C)n4)cc3)cc2)c[nH]1)C(C)C [Compound N-30],<10 fold
18,CC(C)(C)[C@H](NC(=O)C1(N2CCOCC2)CC1)c1nc(-c2ccc(-c3ccc(-c4c[nH]c([C@@H](NC(=O)C5(N6CCOCC6)CC5)C(C)(C)C)n4)cc3)cc2)c[nH]1 [Compound L-31],>100 fold
19,CCC(CC)(NC(=O)OC(C)(C)C)C(=O)N[C@H](c1nc(-c2ccc(-c3ccc(-c4c[nH]c([C@@H](NC(=O)C(CC)(CC)NC(=O)OC(C)(C)C)C(C)(C)C)n4)cc3)cc2)c[nH]1)C(C)(C)C [Compound L-24],>100 fold
20,CC(C)(C)OC(=O)N[C@@H]1CCC[C@H]1C(=O)N[C@H](c1nc(-c2ccc(-c3ccc(-c4c[nH]c([C@@H](NC(=O)[C@@H]5CCC[C@H]5NC(=O)OC(C)(C)C)C(C)(C)C)n4)cc3)cc2)c[nH]1)C(C)(C)C [Compound W-12],>100 fold

row,Compound,Fold-Synergistic 1a (Q30E)
1,CC(C)(C)OC(=O)N1[C@H](C(=O)N[C@H](c2nc(-c3ccc(-c4ccc(-c5c[nH]c([C@@H](NC(=O)[C@@H]6COC(C)(C)N6C(=O)OC(C)(C)C)C(C)(C)C)n5)cc4)cc3)c[nH]2)C(C)(C)C)COC1(C)C [Compound L-55],>100 fold
2,C[C@H]1CCN(C(=O)C(=O)N2CCC(F)(F)CC2)C1c1nc(-c2ccc(-c3ccc(-c4c[nH]c([C@@H]5[C@@H](C)CCN5C(=O)C(=O)N5CCC(F)(F)CC5)n4)cc3)cc2)c[nH]1 (stereo partly drawn) [Compound W-186],>100 fold
3,CC(C)(C)[C@H](NC(=O)C(F)(F)C1(O)CCOCC1)c1nc(-c2ccc(-c3ccc(-c4c[nH]c([C@@H](NC(=O)C(F)(F)C5(O)CCOCC5)C(C)(C)C)n4)cc3)cc2)c[nH]1 [Compound P-163],>100 fold
4,COC(=O)N[C@H](C(=O)NC1(c2nc(-c3ccc(-c4ccc(-c5c[nH]c(C6(NC(=O)[C@@H](NC(=O)OC)C(C)C)Cc7ccccc7C6)n5)cc4)cc3)c[nH]2)Cc2ccccc2C1)C(C)C [Compound N-18],<10 fold
5,CCC(C)[C@H](NC(=O)[C@@H](NC(=O)OC)C(C)C)c1nc(-c2ccc(-c3ccc(-c4c[nH]c([C@@H](NC(=O)[C@@H](NC(=O)OC)C(C)C)C(C)CC)n4)cc3)cc2)c[nH]1 (stereo partly drawn) [Compound N-33],>10 fold
6,CC(C)(C)OC(=O)N1C[C@H](F)C[C@H]1C(=O)N[C@H](c1nc(-c2ccc(-c3ccc(-c4c[nH]c([C@@H](NC(=O)[C@@H]5C[C@@H](F)CN5C(=O)OC(C)(C)C)C5(C)CC5)n4)cc3)cc2)c[nH]1)C1(C)CC1 [Compound W-182],>100 fold
7,CC1(OC(=O)N2C[C@H](F)C[C@H]2C(=O)N[C@H](c2nc(-c3ccc(-c4ccc(-c5c[nH]c([C@@H](NC(=O)[C@@H]6C[C@@H](F)CN6C(=O)OC6(C)CC6)C(C)(C)C)n5)cc4)cc3)c[nH]2)C(C)(C)C)CC1 [Compound W-119],>100 fold
8,COC(=O)N[C@@H](C(=O)NC1(c2nc(-c3ccc(-c4ccc(-c5c[nH]c(C6(NC(=O)[C@H](NC(=O)OC)C(C)C)Cc7ccccc7C6)n5)cc4)cc3)c[nH]2)Cc2ccccc2C1)C(C)C [Compound N-17],<10 fold
9,CC(C)(C)[C@H](NC(=O)C1(C)CC1(F)F)c1nc(-c2ccc(-c3ccc(-c4c[nH]c([C@@H](NC(=O)C5(C)CC5(F)F)C(C)(C)C)n4)cc3)cc2)c[nH]1 (stereo partly drawn) [Compound L-58a],>100 fold
10,CC1([C@H](NC(=O)[C@@]2(C)CCCCO2)c2nc(-c3ccc(-c4ccc(-c5c[nH]c([C@@H](NC(=O)[C@@]6(C)CCCCO6)C6(C)CC6)n5)cc4)cc3)c[nH]2)CC1 [Compound P-187],>100 fold
11,CC1(C(=O)N[C@H](c2nc(-c3ccc(-c4ccc(-c5c[nH]c([C@@H](NC(=O)C6(C)OCC7(CC7)CO6)C(C)(C)C)n5)cc4)cc3)c[nH]2)C(C)(C)C)OCC2(CC2)CO1 (stereo partly drawn) [Compound L-84],>100 fold
12,COC1(C(F)(F)C(=O)N[C@H](c2nc(-c3ccc(-c4ccc(-c5c[nH]c([C@@H](NC(=O)C(F)(F)C6(OC)CCCCC6)C(C)(C)C)n5)cc4)cc3)c[nH]2)C(C)(C)C)CCCCC1 [Compound P-167],>100 fold
13,CC(C)(C(=O)N[C@H](c1nc(-c2ccc(-c3ccc(-c4c[nH]c([C@@H](NC(=O)C(C)(C)C(=O)N5CCC(F)CC5)C(C)(C)C)n4)cc3)cc2)c[nH]1)C(C)(C)C)C(=O)N1CCC(F)CC1 [Compound W-142],>100 fold
14,CC(CO)(CO)C(=O)N[C@H](c1nc(-c2ccc(-c3ccc(-c4c[nH]c([C@@H](NC(=O)C(C)(CO)CO)C(C)(C)C)n4)cc3)cc2)c[nH]1)C(C)(C)C [Compound W-125],>100 fold
15,Cc1cc(-c2ccc(-c3c[nH]c([C@@H](NC(=O)c4c(F)cccc4Cl)C(C)C)n3)cc2)ccc1-c1c[nH]c([C@@H](NC(=O)c2c(F)cccc2Cl)C(C)C)n1 [Compound N-81],>100 fold
16,COc1cnc(C(=O)N2CCC[C@H]2c2ncc(-c3ccc(-c4ccc(-c5cnc([C@@H]6CCCN6C(=O)c6ncc(OC)c7ccccc67)[nH]5)cc4)cc3)[nH]2)c2ccccc12 [Compound S-199],>100 fold
17,CC(C)[C@H](NC(=O)C(=O)N1CCCCCC1)c1nc(-c2ccc(-c3ccc(-c4c[nH]c([C@@H](NC(=O)C(=O)N5CCCCCC5)C(C)C)n4)cc3)cc2)c[nH]1 [Compound W-52],>100 fold
18,C[C@@H]1CN(C(=O)C(C)(C)C(=O)N[C@H](c2nc(-c3ccc(-c4ccc(-c5c[nH]c([C@@H](NC(=O)C(C)(C)C(=O)N6C[C@@H](C)O[C@@H](C)C6)C(C)(C)C)n5)cc4)cc3)c[nH]2)C(C)(C)C)C[C@H](C)O1 [Compound W-154],>100 fold
19,CC(C)[C@H](NC(=O)[C@@]1(C)CC(F)(F)CO1)c1nc(-c2ccc(-c3ccc(-c4c[nH]c([C@@H](NC(=O)[C@@]5(C)CC(F)(F)CO5)C(C)C)n4)cc3)cc2)c[nH]1 [Compound Y-80],>100 fold

# Reference: patent publication US9326973B2, “Hepatitis C virus inhibitors” (priority 2012, dated 2016)
